The values that follow come from patent US12404519B2 (priority 2013, dated 2025).

The term IC50 denotes the concentration that gives 50% inhibition. Lower therefore signals higher potency.

Where a SMILES comes first, the peptide text is derived from it.

Assay [1] concerns Fusarium graminearum PH-1.
Assay [2] concerns pathogenic fungi. The note with it: pure protein added to in vitro antifungal assay medium; cited from earlier work.

In the case of `C[C@H](NC(=O)CN)C(=O)N[C@@H](CS)C(=O)N[C@@H](Cc1c[nH]cn1)C(=O)N[C@@H](CCCNC(=N)N)C(=O)N[C@@H](CCC(N)=O)C(=O)NCC(=O)N[C@@H](Cc1ccccc1)C(=O)NCC(=O)N[C@@H](Cc1ccccc1)C(=O)N[C@@H](C)C(=O)N[C@@H](CS)C(=O)N[C@@H](Cc1ccccc1)C(=O)N[C@@H](CS)C(=O)N[C@@H](Cc1ccc(O)cc1)C(=O)N[C@@H](CCCCN)C(=O)N[C@@H](CCCCN)C(=O)N[C@@H](CS)C(=O)O` [GMA-5C, GACHRQGFGFACFCYKKC] (H-GACHRQGFGFACFCYKKC-OH; N-terminus and C-terminus assumed), in assay [1], the “IC100 (concentration required for 100% inhibition of fungal growth)” value is given as “about 24 μM”. Moreover, in assay [1] (24 h), the concentration for half-maximal inhibition (IC50) is 6 to 12 µM.
With “Rs-AFP1: small cysteine-rich protein isolated from radish seed (QKLCERPSGTWSGVCGNNNACKNQCINLEKARHGSCNYVFPAHKCICYFPC; UniProt P69241 30-80, looked up)”, the “Growth inhibition of pathogenic fungi in vitro” value in assay [2] is given as “inhibited the growth of many pathogenic fungi”.
On to “Rs-AFP2: small cysteine-rich protein isolated from radish seed (QKLCQRPSGTWSGVCGNNNACKNQCIRLEKARHGSCNYVFPAHKCICYFPC; UniProt P30230 30-80, looked up)”, for which, in assay [2], the “Growth inhibition of pathogenic fungi in vitro” value is on record as “inhibited the growth of many pathogenic fungi”.
